{"source": "paper PMC8597174", "about": "(Clinical Pharmacology in Drug Development, 2021)", "origin": "cited, not measured here"}
{"substance": "salmon calcitonin", "values": [{"measurement": "Effect of dosing after meal intake on maximum concentration and AUC", "value": "significant reduction in maximum concentration and AUC"}]}
